Key:
MAO-B [1] = type: in vivo, Macaca fascicularis; settings: from pretreatment and displacement with reference competitors
Experimental: Each PET measurement was performed on a separate experimental day. Experiments conducted in the same NHP were separated by at least 6 weeks. Baseline PET measurements were initially undertaken in each of the five NHPs.
Time curves for regional [^18F]GEH200449 binding at baseline were analyzed by kinetic modeling using 1-TC and 2-TC models,[32] and VT as outcome measures. Akaike information criterion[33] and F statistics were applied to select the preferred model. Regional estimates of VT for [^18F]GEH200449 were also obtained using the Logan linear graphical method[34] with t* fixed at 40 min. The analyses were performed using the kinetic modeling tool in PMOD v. 4.3. Occupancy at [^18F]GEH200449 binding sites was estimated based on regional VT values obtained by the Logan method at baseline and after drug administration according to a graphical procedure described in the literature.[22]

MAO-B [2] = system: MAO-B; parameters: method as in PMID 33284012; settings: autoradiography; cited from earlier work
[3] = Fraction of unchanged radioligand in arterial plasma (radiometabolite analysis); type: in vivo, Macaca fascicularis; settings: 30 min after injection
Experimental: (§1) At start of PET data acquisition, a sterile physiological phosphate buffer solution (pH = 7.4) of [^18F]GEH200449 (injected radioactivity, 107–167 MBq) was injected as a bolus into a sural vein. Emission data were acquired in list mode for 123 min. Arterial blood was sampled as previously described[28] using an automated blood sampling system (ABSS) during the first 3 min of each PET measurement. Subsequently, arterial blood samples (0.7–2.5 mL) were manually drawn at 7, 15, 30, 60, 90, and 120 min after injection of [^18F]GEH200449. After centrifugation, 0.15–1.0 mL of plasma was pipetted and plasma radioactivity was measured in a well counter. In addition, samples were taken directly from the ABSS at 0.5, 1, 1.5, 2, 2.5, and 3 min for cross-calibration with the well counter and for the determination of the plasma-to-blood ratio.
The fraction of plasma radioactivity corresponding to the unchanged radioligand in plasma was determined from arterial plasma samples collected at 2, 7, 15, 30, 60, 90, and 120 min after injection of [^18F]GEH200449 according to previously described procedures.[29]

[4] = PET whole-brain radioactivity (brain exposure) at baseline; type: in vivo, Macaca fascicularis; settings: for whole-brain radioactivity, maximum concentration: IV injection
Experimental: Two male and three female NHPs (#1–5) of the species M. fascicularis, weighing 4.2–8.8 kg, were supplied by the Astrid Fagraeus Laboratory, Karolinska Institutet, Solna, Sweden. Anesthesia was initiated by intramuscular injection of ketamine hydrochloride (ca. 10 mg/kg, Ketalar, Pfizer) and maintained by intravenous infusion of a mixture of ketamine hydrochloride (4 mg/kg/h) and xylazine hydrochloride (0.4 mg/kg/h Rompun Vet., Bayer).
PET measurements were conducted using the high-resolution research tomograph system (Siemens Molecular Imaging, Knoxville, TN, USA) for NHPs #1–4 and using the LFER 150 PET/CT system (Mediso Ltd., Budapest, Hungary) for NHP #5.
as §1
Dynamic images were reconstructed as previously described.[30],[31] Regions of interest (ROIs) for the whole brain and selected regions (caudate nucleus, putamen, thalamus, occipital cortex, prefrontal cortex, and cerebellum) were manually delineated on T1-weighted magnetic resonance images (MRIs) acquired as previously described.[21],[27] PET images were coregistered to the MRIs, and time-activity curves were generated by pooling ROIs for each paired anatomical region and applying the pooled ROIs to the coregistered PET images. […]

## O=c1ccoc2ccc(OCc3ccc([18F])nc3)cc12 [[^18F]GEH200449]
MAO-B [1]
  character of binding in the NHP brain: reversible and selective toward MAO-B
MAO-B [2]
  binding in human brain tissue: specific binding to MAO-B
  non-specific binding in human brain tissue: low
[3]
  parent radioligand remaining unchanged in plasma: 5–28%
[4]
  whole-brain radioactivity, maximum concentration: 4.0–6.4 %ID
[4]; n = 5 NHPs
  whole-brain radioactivity, maximum concentration: 3.4–5.2 SUV
[4]; after IV injection
  time to maximum whole-brain radioactivity concentration: 1.8 to 7.5 min

From PMC10485887, “PET Evaluation of the Novel F-18 Labeled Reversible Radioligand [^18F]GEH200449 for Detection of Monoamine Oxidase-B in the Non-Human Primate Brain” (ACS Chemical Neuroscience, 2023)
